{"source": "ChEMBL document CHEMBL1130456", "about": "“Nonpeptide glycoprotein IIb/IIIa inhibitors. 13. design and synthesis of an orally active pyrazolopiperazinone nonpeptide fibrinogen receptor antagonist” (Bioorg Med Chem Lett, 1997)", "note": "“And” between values parts separate entries of the source, which are not always exact repeats. Identical values can stand only once.", "data": [{"species_on_record": "Homo sapiens", "test": "Concentration required for 50% inhibition of platelet aggregation of human gel-filtered platelets(GFP) in platelet aggregation assay", "format": "functional", "units": {"IC50": "nM"}, "values": [{"compound": "N[C@@H](CNC(=O)c1cc2n(n1)CCN(CCC1CCNCC1)C2=O)C(=O)O", "IC50": 45}, {"compound": "O=C(NCc1ccccc1)N[C@@H](CNC(=O)c1cc2n(n1)CCN(CCC1CCNCC1)C2=O)C(=O)O", "IC50": 22}, {"compound": "C=CCCS(=O)(=O)N[C@@H](CNC(=O)c1cc2n(n1)CCN(CCC1CCNCC1)C2=O)C(=O)O", "IC50": 11}, {"compound": "O=C(N[C@@H](CNC(=O)c1cc2n(n1)CCN(CCC1CCNCC1)C2=O)C(=O)O)OCc1ccccc1", "IC50": 5}, {"compound": "CS(=O)(=O)N[C@@H](CNC(=O)c1cc2n(n1)CCN(CCC1CCNCC1)C2=O)C(=O)O", "IC50": 15}, {"compound": "C[C@H](CC(=O)O)NC(=O)c1cc2n(n1)CCN(CCC1CCNCC1)C2=O", "IC50": 260}, {"compound": "CC(=O)N[C@@H](CNC(=O)c1cc2n(n1)CCN(CCC1CCNCC1)C2=O)C(=O)O", "IC50": 25}, {"compound": "C#C[C@H](CC(=O)O)NC(=O)c1cc2n(n1)CCN(CCC1CCNCC1)C2=O", "IC50": 120}]}, {"tested_on": "Rhesus monkey", "test": "Inhibition of platelet aggregation at 24 hr in response to collagen in conscious rhesus monkey", "format": "functional, Cercopithecidae", "values": [{"compound": "CCCCS(=O)(=O)N[C@@H](CNC(=O)c1cc2n(n1)CCN(CCC1CCNCC1)C2=O)C(=O)O", "Inhibition": "86% and 31%"}]}, {"tested_on": "Rhesus monkey", "test": "Inhibition of platelet aggregation at 6 hr in response to ADP and collagen in conscious rhesus monkey", "format": "functional, Cercopithecidae", "units": {"Inhibition": "%"}, "values": [{"compound": "CCCCS(=O)(=O)N[C@@H](CNC(=O)c1cc2n(n1)CCN(CCC1CCNCC1)C2=O)C(=O)O", "Inhibition": ">90"}]}]}
